Consider eight compounds from patent US12384795B2, “Pyrimido[5,4-b]pyrrolizin compound, optical isomer thereof, preparation method therefor and use thereof” (SHANGHAI INSTITUTE OF MATERIA MEDICA, CHINESE ACADEMY OF …, priority 2019, dated 2025).

The test system of series [1] is Human B lymphoma cell Ramos (Burkitt lymphoma). The series can be described thus: Inhibition of proliferation of Ramos cells in vitro (MTT, 72 h). It counts as cell-based. The protocol:
(§1) Cell suspensions (Ramos: 10000 cells/well; TMD8: 12000 cells/well) were seeded in a 96-well plate, placed in an incubator for 2 hours at 37° C., after the cell state was stabilized, different concentrations of tested compounds were added to each well (each concentration was set with 3 duplicate wells), and blank control (only containing culture solution, but not containing cells), negative control (only adding cells, but not adding compounds) and positive compound control were set at the same time. After 72 h treatment, 20 μL MTT (5 mg/ml) was added to each well and incubated for 4 h at 37° C. 100 μL triple solution (10% SDS, 5% isobutanol, 0.01 M HCl) was added and placed overnight at 37° C. The OD value was measured with microplate enzyme-labeled instrument SPECTRA MAX Plus 384 with adjustable wavelength at 570 nm.
(§2) The inhibition rate of the compound was obtained by the following formula: […]
(§3) The IC50 value was obtained by four-parameter regression using the software attached to the microplate reader.

Series [2] deals with Human diffuse large B lymphoma cell TMD8. The series can be described thus: Inhibition of proliferation of TMD8 cells in vitro (MTT, 72 h). It counts as cell-based. The protocol:
as §1, §2, §3

A short description of series [3]: Further study of metabolism of earlier compounds. It counts as in vitro ADME. To be noted: 4-position of terminal phenyl easy to be oxidized.
The next series has as its target BTK (Homo sapiens, UniProt Q06187). The settings on record: disclosed in patent CN108101905A; cited from earlier work.
Series [4] has as its target BTK tyrosine kinase protein (Homo sapiens, UniProt Q06187). The series can be described thus: Inhibitory activity evaluation of Bruton kinase (BTK) at molecular level (ELISA). It counts as biochemical. To be noted: ATP 5 μM. For orientation: In an ELISA, binding on a coated surface is turned into a signal by an enzyme label.
Protocol: The enzyme reaction substrate Poly (Glu, Tyr)4:1 was diluted with potassium-free PBS (10 mM sodium phosphate buffer, 150 mM NaCl, pH 7.2-7.4) to 20 μg/ml, and coated enzyme plate. After reacting at 37° C. for 12-16 hours, the plate was washed three times with 200 μL/well T-PBS (PBS containing 0.1% Tween-20) and dried in 37° C. oven for 1-2 hours. 49 μL/well ATP solution (final concentration was 5 μM) diluted with a reaction buffer (50 mM HEPES pH 7.4, 50 mM MgCl2, 0.5 mM MnCl2, 0.2 mM Na3VO4, 1 mM DTT) was firstly added into the substrate-coated plate. 1 μL compound to be tested (compound well) or DMSO with corresponding concentration (negative control well) was added into each well, and enzyme-free control well was set up for each experiment. Then 50 μL of BTK tyrosine kinase protein diluted with reaction buffer was added to start the reaction.
The above reaction system was placed in a shaking table (100 rpm) for 1 hour at 37° C., then the plate was washed with T-PBS for three times, and the primary antigen PY99 100 μL/well (Santa Cruz) was added, and the reaction was carried out in a shaking table for 0.5 hours at 37° C. […]
For series [5], the system named is human lymphoma TMD8 xenograft. The series can be described thus: Anti-tumor activity in vivo, TMD8 xenograft tumor model. Also on record: species or system Mice. The settings on record: for Tumor volume: 17th day, mean ± SEM. As to the method: (§4) • 1) Species: Mice • 2) Strain: CB-17 SCID • 3) Age and body weight: 6-8 weeks; 18-22 g • 4) Sex: Female • 5) Supplier: Beijing Vital River Laboratory Animal Technology Co., Ltd. REC-1 Xenograft Tumor Model • 1) Species: Mice • 2) Strain: BALB/c nude mice • 3) Age and body weight: 6-8 weeks; 17-20 g • 4) Sex: Female • 5) Supplier: Shanghai Lingchang Biotechnology Co., Ltd.
(§5) Conventional treatment was carried out twice a week. When the cell saturation was 80%-90%, the cells were collected, counted and inoculated.
Tumor cell inoculation: 0.2 mL 10×10^6 Human lymphoma TMD8 cells were subcutaneously inoculated into the right back of each nude mouse (PBS:Matrigel=1:1). When the average tumor volume reached 104 mm^3, group administration began. Each group of 6 mice was grouped according to the tumor volume by random grouping software based on Excel.
(§6) The health status and death status of animals were monitored every day. Routine examinations included observing the effects of tumor growth and drug treatment on daily behaviors of animals, such as behavioral activities, food intake and water intake (visual inspection only), weight change (weight measurement three times a week), appearance signs or other abnormal conditions. Based on the number of animals in each group, the number of animal deaths and side effects in each group were recorded.
(§7) Tumor measurement and experimental indexes: the experimental index was to investigate whether the tumor growth is inhibited, delayed or cured. The tumor diameter was measured with vernier caliper three times a week.
(§8) TGI (%), reflecting the tumor growth inhibition rate.
(§9) Relative tumor proliferation rate T/C (%): the calculation formula is as follows:
(§10) T/C %=TRTV/CRTV×100% (TRTV: Relative tumor volume in treatment group; CRTV: Relative tumor volume in negative control group).
(§11) Statistical analysis: Statistical analysis, including the mean value of tumor volume and standard error (SEM) at each time point in each group. […] Three or more groups were compared with one-way ANOVA. If there were significant differences in F values, Games-Howell method was used to test. All data were analyzed with SPSS 17.0. p<0.05 was considered as significant difference.

Series [6] in a line: Oral bioavailability of earlier compound. The settings on record: in vivo.
Series [7] relates to human mantle cell lymphoma REC-1 xenograft. The series can be described thus: Anti-tumor activity in vivo, REC-1 xenograft tumor model. Set-up: species or system Mice. The settings on record: for T/C (%) / TGI (%): day 15; for Tumor volume (mm^3) (Day 15): day 15, mean ± SEM. The protocol:
as §4, §5
0.2 mL 5×10^6 REC-1 cells were subcutaneously inoculated into the right back of each nude mouse (PBS:Matrigel=1:1). When the average tumor volume reached 100 mm^3, group administration began. Each group of 6 mice was grouped according to the tumor volume by random grouping software based on Excel.
as §6, §7, §8, §9, §10, §11

A short description of another series: in vivo. The settings on record: male, Sprague-Dawley (SD), rat. The protocol:
Fourteen SD rats, male, weighing 200-220 g, were randomly divided into 4 groups (4/3 rats in each group) and given the tested compounds by intragastric administration and intravenous administration respectively.
0.5% sodium carboxymethyl cellulose (CMC-Na) containing 1% Tween 80 was formulated for intragastric administration, and 5% DMSO/5% Tween 80/90% normal saline was formulated for intravenous administration.
Fasting for 12 hours and drinking water freely before the test. Eat uniformly 2 hours after administration.
At the above set time point, 0.3 ml of venous blood was taken through the posterior venous plexus of the rat eyeball, placed in a heparinized test tube, centrifuged at 11000 rpm for 5 minutes, and the plasma was separated, frozen in the fridge at −20° C.
The concentration of S17016 in rat plasma was determined by LC/MS/MS.

The nature of series [8]: Metabolic stability test in human liver microsomes. The settings on record: HLM, 0.1 μM drug, 0.33 mg/ml microsomes, NADPH. The format is in vitro ADME. As to the method: (§12) Liver microsomes were incubated in a 96-well plate, and the volume of each incubated system was 450 μL with a medium of 0.1 M Tris buffer (pH 7.4), including liver microsomes with a final concentration of 0.33 mg/ml, 0.1 μM of tested drugs and 5.0 mM MgCl2, 0.01% DMSO, 0.005% BSA and 1.0 mM NADPH. Incubated at 37° C. for 10 min, NADPH was added to initiate the reaction, and 50 μL was taken out and added with the same volume of methanol to terminate the reaction after 0, 7, 17, 30 and 60 min, respectively.
(§13) S17016 in incubated samples was determined by LC/MS/MS with electrospray ionization (ESI) as the ion source and multi-reaction monitoring (MRM) as the scanning mode.
(§14) The experimental results of metabolic stability in vitro of S17016 in different liver microsomes (HLM: human liver microsomes; RLM: rat liver microsomes; MLM: mouse liver microsomes) were shown in Table 9 and FIG. 3 below.

Series [9] can be described thus: Metabolic stability test in rat liver microsomes. It counts as in vitro ADME. To be noted: RLM, 0.1 μM drug, 0.33 mg/ml microsomes, NADPH. As to the method:
as §12, §13, §14
Background: Liver microsomes are vesicles of endoplasmic reticulum, rich in cytochrome P450 enzymes.

Series [10] in a line: Metabolic stability test in mouse liver microsomes. It counts as in vitro ADME. To be noted: MLM, 0.1 μM drug, 0.33 mg/ml microsomes, NADPH. The protocol: as §12, §13, §14

The IC50 is the concentration that inhibits the measured activity by half. Low values mean higher potency, high ones lower potency. As a reminder, the bioavailability is the share of a dose that reaches the circulation, judged against a reference dose that is usually intravenous. A high value points to much systemic uptake. The Vd is a proportionality between amount in the body and measured concentration, not a real space. By clearance is commonly meant a measure of how efficiently the substance is removed, as volume per time. The half-life is how long it takes for the measured level to halve. A word on the AUC: it is concentration integrated over time. Low readings indicate less exposure, high ones more exposure. By Cmax is commonly meant the maximum level reached in the sampled fluid or tissue. The Tmax is the time at which the peak concentration occurs.

Structures are written as SMILES. Several values for one entry are separate records, joined by “and”; a condition that tells them apart may be missing. Identical values can stand only once.

Chain of BTK (Q06187 whole entry): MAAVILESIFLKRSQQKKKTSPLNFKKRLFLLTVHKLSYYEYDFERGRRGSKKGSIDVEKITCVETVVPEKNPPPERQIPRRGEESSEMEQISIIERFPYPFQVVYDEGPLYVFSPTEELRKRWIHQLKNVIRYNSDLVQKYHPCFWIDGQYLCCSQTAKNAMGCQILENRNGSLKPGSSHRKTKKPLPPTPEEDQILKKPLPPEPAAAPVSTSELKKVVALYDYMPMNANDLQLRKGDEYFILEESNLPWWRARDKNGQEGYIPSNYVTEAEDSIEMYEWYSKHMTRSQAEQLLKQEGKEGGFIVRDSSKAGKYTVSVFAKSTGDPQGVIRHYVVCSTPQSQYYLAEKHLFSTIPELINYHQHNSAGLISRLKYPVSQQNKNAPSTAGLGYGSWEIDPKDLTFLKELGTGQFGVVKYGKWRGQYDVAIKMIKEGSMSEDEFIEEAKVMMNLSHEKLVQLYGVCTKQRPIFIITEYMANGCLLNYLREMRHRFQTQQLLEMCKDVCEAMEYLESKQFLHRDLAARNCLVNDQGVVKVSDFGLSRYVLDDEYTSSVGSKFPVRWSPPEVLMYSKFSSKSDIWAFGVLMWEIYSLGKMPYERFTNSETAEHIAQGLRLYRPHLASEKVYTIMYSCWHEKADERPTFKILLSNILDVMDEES
Chain of BTK tyrosine kinase protein (Q06187 whole entry): as above

For `CC#CC(=O)N1CCC[C@H]1c1nc(-c2ccc(C(=O)Nc3ccccn3)cc2)c2c(N)nccn12` [Acalabrutinib], the IC50 in [1] was 38200 nM; in series [2] it was 23 nM.

`C=CC(=O)N[C@@H]1CCc2c(-c3ccc(Oc4ccccc4)cc3)c3c(N)ncnc3n2C1` [Compound S1]: the IC50 was 94700 nM in series [1] and 6 nM in series [2]. For the same compound, in series [3], the stability in metabolism entry is “unstable in metabolism”. For the same compound, the BTK inhibitory activity result on BTK is given as “high BTK inhibitory activity”.

Regarding `CC#CC(=O)N[C@@H]1CCc2c(-c3ccc(Oc4ccccc4)cc3)c3c(N)ncnc3n2C1` [Compound S10], the IC50 in [4] was less than 10 nM; in [1] it was 8720 nM; in series [2], 30 nM. In addition, the stability in metabolism result in series [3] is listed as “unstable in metabolism”. Further, the BTK inhibitory activity entry on BTK was “high BTK inhibitory activity”.

For the compound `C=CC(=O)NC1Cn2c(c(-c3ccc(Oc4ccccc4)cc3)c3c(N)ncnc32)C1=C` (stereo not drawn) [Compound S18s, reference compound], the IC50 was found to be 5040 nM in [1] and 16 nM in [2]. Further, the “T/C (%)” value is 100% in series [5] (15 mg/kg, day 0); 53.51% in series [5] (15 mg/kg, day 6); 47.28% in series [5] (15 mg/kg, day 8); 37.73% in series [5] (15 mg/kg, day 11); 34.97% in [5] (15 mg/kg, day 13). For the same compound, in series [3], the stability in metabolism result is given as “unstable in metabolism”.

In turn, `C=C1c2c(-c3ccc(Oc4ccccc4)cc3)c3c(N)ncnc3n2CC1NC(=O)C#CC` (stereo not drawn) [Compound S19s] yielded an IC50 in series [2] of 17 nM. The stability in metabolism result in series [3] is “unstable in metabolism”.

Turning to `C=CC(=O)NC1Cn2c(c(-c3ccc(C(=O)Nc4ccccn4)cc3)c3c(N)ncnc32)C1=C` (stereo not drawn) [Compound S20s], the figures for the IC50 in series [1] and in series [2] were 14300 nM and 4 nM, respectively. For the same compound, the oral bioavailability result in [6] is recorded as “not ideal”.

As to `C=C1c2c(-c3ccc(C(=O)Nc4ccccn4)cc3)c3c(N)ncnc3n2C[C@H]1NC(=O)C#CC` [Compound S17016], the IC50 in series [4] came to 0.5 nM; in series [1] it was 3150 nM; in series [2], 3 nM. In addition, the “T/C (%)” value in [7] (15 mg/kg) stood at 30%; in [7] (30 mg/kg), 19%; in series [5] (5 mg/kg, day 17), 49.27%; in series [5] (10 mg/kg, day 0), 100%; in series [5] (10 mg/kg, day 5), 48.31%; in [5] (10 mg/kg, day 8) it was 39.22%. Besides, the “T/C (%)” value in series [5] (10 mg/kg, day 10) stood at 34.25%; in series [5] (10 mg/kg, day 12), 30.90%; in series [5] (10 mg/kg, day 15), 30.56%; in series [5] (10 mg/kg, day 17) it was 29.85%. Further, the “TGI (%)” value in series [7] (15 mg/kg) stood at 73%; in series [7] (30 mg/kg), 83%; in series [5] (5 mg/kg, day 17) it was 53.78%; in [5] (10 mg/kg, day 17) it was 74.35%. In addition, the “Tumor volume (mm^3) (Day 15)” value is 1034 mm^3 and 1034 ± 202 mm^3 in series [7] (15 mg/kg, 15 mg/kg); 680 mm^3 and 680 ± 106 mm^3 in series [7] (30 mg/kg, 30 mg/kg). For the same compound, the Tumor volume in [5] (5 mg/kg) was 912 mm^3 and 912 ± 114 mm^3; in series [5] (10 mg/kg), 553 mm^3 and 553 ± 56 mm^3. Further, the bioavailability in the series “in vivo” (in vivo) is 24.8%. Besides, the Vd in “in vivo” (in vivo, iv, 1 mg/kg) came to 0.221 L/kg. The compound further gave a clearance in the series “in vivo” (in vivo, iv, 1 mg/kg) of 3.33 mL/min/kg. Moreover, the half-life in the series “in vivo” (in vivo, iv, 1 mg/kg) is 75.6 min. In the series “in vivo” (in vivo, po, 3 mg/kg), this compound yielded an AUC of 3860 ng·h/mL. The compound also came in with a peak concentration (Cmax) in “in vivo” (in vivo, po, 3 mg/kg) of 2700 ng/mL. Moreover, the Tmax in the series “in vivo” (in vivo, po, 3 mg/kg) came to 15 min. Moreover, the “Absolute value of peak area, M0: parent compound” value is 20285 in [8], 12675 in series [9] and 19033 in series [10]. Moreover, the “M0: parent compound, share of peak area” value in series [8] is “(97.45%)”; in series [9], “(84.07%)”; in [10], “(97.82%)”.

As to `C=CC(=O)N1CCC[C@@H](n2nc(-c3ccc(Oc4ccccc4)cc3)c3c(N)ncnc32)C1` [Ibrutinib, reference compound], the results for the IC50 in series [1] and in series [2] were 12900 nM and 5 nM, respectively. Also, the “TGI (%)” value in series [7] (25 mg/kg) is 64%; in [5] (25 mg/kg, day 17), 68.18%. Besides, the “Tumor volume (mm^3) (Day 15)” value in [7] (25 mg/kg, 25 mg/kg) was 1323 mm^3 and 1323 ± 195 mm^3. Further, the Tumor volume in series [5] (25 mg/kg) was 661 mm^3 and 661 ± 168 mm^3. For the same compound, the bioavailability in the series “in vivo” (plasma, oral, 3 mg/kg) turned out to be 4%. The AUC in the series “in vivo” (plasma, po, 3 mg/kg) was 57 ng·h/mL.
